{"source": "patent US20140357713A1", "about": "“ANTIMICROBIAL COMPOUNDS AND METHODS OF USE” (NexMed Holdings, Inc., priority 2012, published 2014)", "experiment_in_all_cases": "Extended time kill study, Example 34 (0 to 24 h)", "format_in_all_cases": "cell-based", "key": {"[1]": {"test_system": "Escherichia coli", "conditions": "4 × MIC", "how_it_was_run": "(§1)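 Strain suspensions prepared as for MIC testing were mixed 1:1 with compound solution at higher multiples of MIC. Samples taken over 0 to 24 h were diluted in test medium and plated on agar, and colonies were counted after 24–48 h incubation.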"}, "[2]": {"test_system": "Aspergillus niger", "how_it_was_run": "as §1"}, "[3]": {"test_system": "Pseudomonas aeruginosa", "how_it_was_run": "as §1"}, "[4]": {"test_system": "Candida albicans", "how_it_was_run": "as §1"}}, "note": "Structures can show the parent of a compound that is named as a salt."}
{"smiles": "CCCCCCCCCCCCOC(=O)C(C)N(C)C", "note": "(centres unmarked) [Nex-05, Dodecyl 2-(dimethylamino)propanoate hydrochloride]", "values": [{"measurement": "Viable counts, Escherichia coli time kill study", "setting": "[1]; 2 h", "result": "<1", "unit": "Log10 CFU/mL"}, {"measurement": "Viable counts, Escherichia coli time kill study", "setting": "[1]; 4 h", "result": "<1", "unit": "Log10 CFU/mL"}, {"measurement": "Viable counts, Escherichia coli time kill study", "setting": "[1]; 6 h", "result": "<1", "unit": "Log10 CFU/mL"}, {"measurement": "Viable counts, Escherichia coli time kill study", "setting": "[1]; 24 h", "result": "<1", "unit": "Log10 CFU/mL"}, {"measurement": "Viable counts, Escherichia coli time kill study", "setting": "[1]; time 0", "result": 5.21, "unit": "Log10 CFU/mL"}, {"measurement": "Viable counts in Log10 CFU/mL", "setting": "[2]; 1 × MIC, 1 h", "result": 5.28, "unit": "Log10 CFU/mL"}, {"measurement": "Viable counts in Log10 CFU/mL", "setting": "[2]; 1 × MIC, 2 h", "result": 4.78, "unit": "Log10 CFU/mL"}, {"measurement": "Viable counts in Log10 CFU/mL", "setting": "[2]; 1 × MIC, 4 h", "result": 4.60, "unit": "Log10 CFU/mL"}, {"measurement": "Viable counts in Log10 CFU/mL", "setting": "[2]; 1 × MIC, 6 h", "result": 4.30, "unit": "Log10 CFU/mL"}, {"measurement": "Viable counts in Log10 CFU/mL", "setting": "[2]; 1 × MIC, 24 h", "result": 3.30, "unit": "Log10 CFU/mL"}, {"measurement": "Viable counts in Log10 CFU/mL", "setting": "[2]; 1 × MIC, 0 h", "result": 5.41, "unit": "Log10 CFU/mL"}, {"measurement": "Viable counts in Log10 CFU/mL", "setting": "[2]; 2 × MIC, 1 h", "result": 4.30, "unit": "Log10 CFU/mL"}, {"measurement": "Viable counts in Log10 CFU/mL", "setting": "[2]; 2 × MIC, 2 h", "result": 4.70, "unit": "Log10 CFU/mL"}, {"measurement": "Viable counts in Log10 CFU/mL", "setting": "[2]; 2 × MIC, 4 h", "result": 3, "unit": "Log10 CFU/mL"}, {"measurement": "Viable counts in Log10 CFU/mL", "setting": "[2]; 2 × MIC, 6 h", "result": 4, "unit": "Log10 CFU/mL"}, {"measurement": "Viable counts in Log10 CFU/mL", "setting": "[2]; 2 × MIC, 24 h", "result": "<2", "unit": "Log10 CFU/mL"}, {"measurement": "Viable counts in Log10 CFU/mL", "setting": "[2]; 2 × MIC, 0 h", "result": 5.38, "unit": "Log10 CFU/mL"}, {"measurement": "Viable counts in Log10 CFU/mL", "setting": "[2]; 4 × MIC, 1 h", "result": 4.48, "unit": "Log10 CFU/mL"}, {"measurement": "Viable counts in Log10 CFU/mL", "setting": "[2]; 4 × MIC, 2 h", "result": 4, "unit": "Log10 CFU/mL"}, {"measurement": "Viable counts in Log10 CFU/mL", "setting": "[2]; 4 × MIC, 4 h", "result": 3, "unit": "Log10 CFU/mL"}, {"measurement": "Viable counts in Log10 CFU/mL", "setting": "[2]; 4 × MIC, 6 h", "result": 4, "unit": "Log10 CFU/mL"}, {"measurement": "Viable counts in Log10 CFU/mL", "setting": "[2]; 4 × MIC, 24 h", "result": "<2", "unit": "Log10 CFU/mL"}, {"measurement": "Viable counts in Log10 CFU/mL", "setting": "[2]; 4 × MIC, 0 h", "result": 5.50, "unit": "Log10 CFU/mL"}, {"measurement": "Viable counts, Pseudomonas aeruginosa time kill study", "setting": "[3]; 1 × MIC, 1 h", "result": "<1", "unit": "Log10 CFU/mL"}, {"measurement": "Viable counts, Pseudomonas aeruginosa time kill study", "setting": "[3]; 1 × MIC, 2 h", "result": "<1", "unit": "Log10 CFU/mL"}, {"measurement": "Viable counts, Pseudomonas aeruginosa time kill study", "setting": "[3]; 1 × MIC, 4 h", "result": "<1", "unit": "Log10 CFU/mL"}, {"measurement": "Viable counts, Pseudomonas aeruginosa time kill study", "setting": "[3]; 1 × MIC, 6 h", "result": "<1", "unit": "Log10 CFU/mL"}, {"measurement": "Viable counts, Pseudomonas aeruginosa time kill study", "setting": "[3]; 1 × MIC, 24 h", "result": "<1", "unit": "Log10 CFU/mL"}, {"measurement": "Viable counts, Pseudomonas aeruginosa time kill study", "setting": "[3]; 1×MIC, time 0", "result": 5.30, "unit": "Log10 CFU/mL"}, {"measurement": "Viable counts, Pseudomonas aeruginosa time kill study", "setting": "[3]; 2 × MIC, 1 h", "result": "<1", "unit": "Log10 CFU/mL"}, {"measurement": "Viable counts, Pseudomonas aeruginosa time kill study", "setting": "[3]; 2 × MIC, 2 h", "result": "<1", "unit": "Log10 CFU/mL"}, {"measurement": "Viable counts, Pseudomonas aeruginosa time kill study", "setting": "[3]; 2 × MIC, 4 h", "result": "<1", "unit": "Log10 CFU/mL"}, {"measurement": "Viable counts, Pseudomonas aeruginosa time kill study", "setting": "[3]; 2 × MIC, 6 h", "result": "<1", "unit": "Log10 CFU/mL"}, {"measurement": "Viable counts, Pseudomonas aeruginosa time kill study", "setting": "[3]; 2 × MIC, 24 h", "result": "<1", "unit": "Log10 CFU/mL"}, {"measurement": "Viable counts, Pseudomonas aeruginosa time kill study", "setting": "[3]; 2 × MIC, time 0", "result": 5.22, "unit": "Log10 CFU/mL"}, {"measurement": "Viable counts, Pseudomonas aeruginosa time kill study", "setting": "[3]; 4 × MIC, 1 h", "result": "<1", "unit": "Log10 CFU/mL"}, {"measurement": "Viable counts, Pseudomonas aeruginosa time kill study", "setting": "[3]; 4 × MIC, 2 h", "result": "<1", "unit": "Log10 CFU/mL"}, {"measurement": "Viable counts, Pseudomonas aeruginosa time kill study", "setting": "[3]; 4 × MIC, 4 h", "result": "<1", "unit": "Log10 CFU/mL"}, {"measurement": "Viable counts, Pseudomonas aeruginosa time kill study", "setting": "[3]; 4 × MIC, 6 h", "result": "<1", "unit": "Log10 CFU/mL"}, {"measurement": "Viable counts, Pseudomonas aeruginosa time kill study", "setting": "[3]; 4 × MIC, 24 h", "result": "<1", "unit": "Log10 CFU/mL"}, {"measurement": "Viable counts, Pseudomonas aeruginosa time kill study", "setting": "[3]; 4 × MIC, time 0", "result": 5.26, "unit": "Log10 CFU/mL"}, {"measurement": "Viable counts in Log10 CFU/mL", "setting": "[4]; 1 × MIC, 1 h", "result": 5.62, "unit": "Log10 CFU/mL"}, {"measurement": "Viable counts in Log10 CFU/mL", "setting": "[4]; 1 × MIC, 2 h", "result": 5.60, "unit": "Log10 CFU/mL"}, {"measurement": "Viable counts in Log10 CFU/mL", "setting": "[4]; 1 × MIC, 4 h", "result": 5.60, "unit": "Log10 CFU/mL"}, {"measurement": "Viable counts in Log10 CFU/mL", "setting": "[4]; 1 × MIC, 6 h", "result": 6.02, "unit": "Log10 CFU/mL"}, {"measurement": "Viable counts in Log10 CFU/mL", "setting": "[4]; 1 × MIC, 24 h", "result": ">6", "unit": "Log10 CFU/mL"}, {"measurement": "Viable counts in Log10 CFU/mL", "setting": "[4]; 1 × MIC, 0 h", "result": 5.82, "unit": "Log10 CFU/mL"}, {"measurement": "Viable counts in Log10 CFU/mL", "setting": "[4]; 2 × MIC, 1 h", "result": 4.99, "unit": "Log10 CFU/mL"}, {"measurement": "Viable counts in Log10 CFU/mL", "setting": "[4]; 2 × MIC, 2 h", "result": 4.88, "unit": "Log10 CFU/mL"}, {"measurement": "Viable counts in Log10 CFU/mL", "setting": "[4]; 2 × MIC, 4 h", "result": 4.62, "unit": "Log10 CFU/mL"}, {"measurement": "Viable counts in Log10 CFU/mL", "setting": "[4]; 2 × MIC, 6 h", "result": 4.58, "unit": "Log10 CFU/mL"}, {"measurement": "Viable counts in Log10 CFU/mL", "setting": "[4]; 2 × MIC, 24 h", "result": 2.57, "unit": "Log10 CFU/mL"}, {"measurement": "Viable counts in Log10 CFU/mL", "setting": "[4]; 2 × MIC, 0 h", "result": 5.81, "unit": "Log10 CFU/mL"}, {"measurement": "Viable counts in Log10 CFU/mL", "setting": "[4]; 4 × MIC, 1 h", "result": 3.95, "unit": "Log10 CFU/mL"}, {"measurement": "Viable counts in Log10 CFU/mL", "setting": "[4]; 4 × MIC, 2 h", "result": 3.90, "unit": "Log10 CFU/mL"}, {"measurement": "Viable counts in Log10 CFU/mL", "setting": "[4]; 4 × MIC, 4 h", "result": "<2.70", "unit": "Log10 CFU/mL"}, {"measurement": "Viable counts in Log10 CFU/mL", "setting": "[4]; 4 × MIC, 6 h", "result": "<2.70", "unit": "Log10 CFU/mL"}, {"measurement": "Viable counts in Log10 CFU/mL", "setting": "[4]; 4 × MIC, 24 h", "result": "<1", "unit": "Log10 CFU/mL"}, {"measurement": "Viable counts in Log10 CFU/mL", "setting": "[4]; 4 × MIC, 0 h", "result": 5.79, "unit": "Log10 CFU/mL"}]}
